These results are taken from publication PMC8348686, “The Pharmacological Profile of Second Generation Pyrovalerone Cathinones and Related Cathinone Derivative” (International Journal of Molecular Sciences, 2021).

Each structure is given as a SMILES string. Entries after “also recorded” stand apart in the source; their conditions may differ. Read-outs that look alike come from different tables or passages of the source.

Assay [1] deals with T1, hSERT (Homo sapiens, UniProt P31645). Particulars: read-out: hSERT Receptor Binding Ki ± SD, [3H]-Citalopram, cited from earlier work.
A further assay addresses hDAT (Homo sapiens, UniProt Q01959). Particulars: read-out: hDAT Receptor Binding Ki ± SD, [3H]-WIN-35,428, cited from earlier work.
A further assay addresses Mouse TAAR1. Conditions: [3H]-RO5166017, read-out: Mouse TAAR1 Receptor Binding Ki ± SD, cited from earlier work.
The next assay concerns the target T2, h5-HT2C receptor (Homo sapiens, UniProt P28335).
T2 construct: expressed in transfected cells; host or cells: HEK293 cell preparations
T2 sequence (P28335 33-458): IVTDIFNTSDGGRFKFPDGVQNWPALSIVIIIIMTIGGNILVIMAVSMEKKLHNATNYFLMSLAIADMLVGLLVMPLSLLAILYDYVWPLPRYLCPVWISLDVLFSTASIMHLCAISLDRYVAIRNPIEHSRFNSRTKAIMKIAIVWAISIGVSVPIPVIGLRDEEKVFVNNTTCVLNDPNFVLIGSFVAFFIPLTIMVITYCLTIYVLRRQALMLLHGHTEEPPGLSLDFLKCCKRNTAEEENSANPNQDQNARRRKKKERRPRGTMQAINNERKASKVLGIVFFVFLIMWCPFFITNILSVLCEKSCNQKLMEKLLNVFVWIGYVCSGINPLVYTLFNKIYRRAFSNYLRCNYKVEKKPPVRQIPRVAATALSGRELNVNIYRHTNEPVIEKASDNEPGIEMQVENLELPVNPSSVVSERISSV
The assay can be described thus: Radioligand binding, [3H]-mesulgerine. The protocol:
The radioligand binding assays for the human 5-HT1A, 5-HT2A, and 5-HT2C receptors were examined as previously described by. In summary, the human embryonic kidney 293 (HEK293) cell preparations were stably transfected with the human 5-HT1A, 5-HT2A or 5-HT2C receptors and then incubated with their respective radiolabelled ligands at a concentration equal to the dissociation constant, Kd. The following radioligands were used for the 5-HT1A, 5-HT2A, and 5-HT2C receptors, respectively; 0.90 nM [^3H]8-hydroxy-2-(dipropylamino) tetralin (8-OH-DPAT), 0.40 nM [^3H]ketanserin, and 1.4 nM [^3H]mesulgerine. The radioligand displacement for each examined drug was determined. Specific binding of the radioligand to the target was calculated by subtracting the nonspecific binding (in the presence of the receptor’s competitor in excess) from the total observed binding. The following radioligand competitors were used for the 5-HT1A, 5-HT2A, and 5-HT2C receptors, respectively; 10 μM pindolol (5-HT1A receptor), 10 μM spiperone (5-HT2A receptor), and 10 μM mianserin (5-HT2C receptor).

Another assay deals with h5-HT2A receptor (Homo sapiens, UniProt P28223). Briefly: Activation potency, FLIPR calcium assay in NIH-3T3 cells. Format: cell-based. Also noted: expressed in transfected cells. The protocol:
Mouse embryonic fibroblasts (NIH-3T3) were transfected with the human 5-HT2A receptors, seed into 96-well plates coated with poly-D-lysine at a concentration of 70,000 cell per 0.1 mL and then incubated for 1 h at 37 °C in HEPES-Hank’s Balanced Salt Solution (HBSS) buffer (Gibco). Next, the plates were exposed to 100 μL/well of dye solution for 1 h at 37 °C inside the FLIPR (fluorescence imagining plate reader [FLIPR] calcium 5 assay kit; Molecular Devices, Sunnyvale, CA, USA). Then, the plates were exposed to the 25 μL/well of test drugs dissolved in HEPES–HBSS buffer and 250 mM probencid during online mode. The corresponding concentration vs. response curves were fitted using nonlinear regression and the EC50 values were calculated. The efficacy (maximal activity) was calculated relative to 5-HT activity, which was defined as 100%.

Assay [2] concerns the target T1, hSERT. The assay can be described thus: Transporter-mediated monoamine efflux, [3H]-5-HT preloaded HEK293 cells. Format: cell-based. Also on record: expressed in transfected cells; host or cells: HEK293. Particulars: 100 μM of drug, 15 min, HEK293 hSERT preloaded with [3H]-5-HT; data for some pyrovalerones adapted from [13]. The procedure:
(§1) Monoamine efflux was assessed using human embryonic kidney 293 (HEK293) cells (Invitrogen, Zug, Switzerland) stably transfected with the human norepinephrine (hNET), dopamine (hDAT), or serotonin (hSERT) uptake transporters. In summary, the cells were seeded in poly-D-lysine coated XF24 cell culture microplates (Seahorse Biosciences, North Billerica, MA, USA) and cultured overnight at a concentration of 100,000 cells per well.
(§2) The cells were then exposed to Krebs–HEPES release buffer (85 μL/well) comprised of 130 mM NaCl, 1.3 mM KCl, 2.2 mM CaCl2, 1.2 mM MgSO4, 1.2 mM KH2PO4, 10 mM HEPES, and 10 mM D-glucose at a pH of 7.5, which also contained 10 nM radiolabelled neurotransmitter ([^3H]-5-HT for SERT, [^3H]-DA for DAT or [^3H]-NE for NET), 1 μM unlabelled neurotransmitter (DA or NE, only), 10 μM pargyline, and 0.2 mg/mL of ascorbic acid. This enabled the loading of the cells with their respective neurotransmitters via the uptake transporters. Afterwards, the release buffer was replaced by fresh buffer to wash the cells twice and the cells were then incubated for 15 min (DAT and SERT) or 45 min (NET) to 100 μM of test drugs dissolved in 1 mL of Krebs–HEPES buffer while shaking at 300 rpm and 37 °C. Termination of the release reaction occurred by removing the buffer from the cells and washing them with ice-cold buffer. Next, 50 μL of lysis buffer was added to the cells for 1 h in order to lyse the cells. Thereafter, 40 μL of the lysed cell mixture was transferred into scintillation vials (Perkin–Elmer, Schwerzenbach, Switzerland) containing 3 mL of scintillation fluid (Ultimagold, Perkin–Elmer, Schwerzenbach, Switzerland) and measured using liquid scintillation (as previously described in Section 2.2).
(§3) To quantify the “pseudo efflux” caused by the non-transporter mediated monoamine release and successive reuptake inhibition, each monoamine efflux experiment included a control where the cells were exposed to each respective transporter blocker (nisoxetine for NET, mazindol for DAT, and citalopram for SERT). The radioactivity inside the cells without any drug was set as 100%. The nonspecific release was subtracted from the total observed release at 100 μM of each examined drug to calculate the specific transporter mediated release. One single concentration of the test drugs was used (100 μM) and release exposure durations were set based on previously evaluated kinetics of the release-over-time curves.
(§4) An ANOVA followed by a Holm–Sidak test was conducted to compare each drug’s specific transporter-mediated efflux based on at least three independent experiments to the control condition.

A further assay has as its target hNET (Homo sapiens, UniProt P23975). Briefly: Transporter-mediated monoamine efflux, [3H]-NE preloaded HEK293 cells. Type of assay: cell-based. Also noted: expressed in transfected cells; host or cells: HEK293. Conditions: 100 μM of drug, 45 min, HEK293 hNET preloaded with [3H]-NE; data for some pyrovalerones adapted from [13]. The protocol:
as §1, §2, §3, §4

[3] abbreviates: ref Luethi, Kolaczynska et al. (2019).

hDAT, sequence (Q01959 whole entry): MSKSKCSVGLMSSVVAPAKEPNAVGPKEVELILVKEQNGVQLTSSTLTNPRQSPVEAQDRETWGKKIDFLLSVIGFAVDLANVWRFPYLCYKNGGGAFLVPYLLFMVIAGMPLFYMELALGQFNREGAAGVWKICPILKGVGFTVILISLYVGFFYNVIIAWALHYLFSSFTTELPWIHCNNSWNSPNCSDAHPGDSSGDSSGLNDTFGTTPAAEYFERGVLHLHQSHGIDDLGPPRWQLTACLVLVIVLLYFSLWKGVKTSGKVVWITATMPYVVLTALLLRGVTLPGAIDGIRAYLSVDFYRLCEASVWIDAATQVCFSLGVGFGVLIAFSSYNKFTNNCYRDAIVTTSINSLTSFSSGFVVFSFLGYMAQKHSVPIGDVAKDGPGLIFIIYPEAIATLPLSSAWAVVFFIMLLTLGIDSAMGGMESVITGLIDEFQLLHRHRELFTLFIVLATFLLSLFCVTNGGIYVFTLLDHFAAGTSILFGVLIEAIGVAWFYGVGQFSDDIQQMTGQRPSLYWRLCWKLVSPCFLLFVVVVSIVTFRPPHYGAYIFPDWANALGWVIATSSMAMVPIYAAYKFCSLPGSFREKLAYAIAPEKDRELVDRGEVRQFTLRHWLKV
h5-HT2A receptor, sequence (P28223 whole entry): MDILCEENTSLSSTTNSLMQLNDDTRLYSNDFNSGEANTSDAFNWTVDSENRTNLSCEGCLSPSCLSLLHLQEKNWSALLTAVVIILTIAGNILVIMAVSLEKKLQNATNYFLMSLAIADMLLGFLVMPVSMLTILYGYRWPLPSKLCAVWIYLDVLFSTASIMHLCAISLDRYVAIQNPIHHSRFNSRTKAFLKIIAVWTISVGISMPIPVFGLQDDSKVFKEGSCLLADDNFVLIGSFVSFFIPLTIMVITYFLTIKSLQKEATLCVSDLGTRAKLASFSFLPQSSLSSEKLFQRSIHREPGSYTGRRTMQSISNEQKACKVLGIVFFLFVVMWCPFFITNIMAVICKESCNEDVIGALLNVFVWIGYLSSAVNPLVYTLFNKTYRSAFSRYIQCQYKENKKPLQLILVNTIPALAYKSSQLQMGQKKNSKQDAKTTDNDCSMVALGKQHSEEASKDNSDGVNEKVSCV
T1 sequence (P31645 whole entry): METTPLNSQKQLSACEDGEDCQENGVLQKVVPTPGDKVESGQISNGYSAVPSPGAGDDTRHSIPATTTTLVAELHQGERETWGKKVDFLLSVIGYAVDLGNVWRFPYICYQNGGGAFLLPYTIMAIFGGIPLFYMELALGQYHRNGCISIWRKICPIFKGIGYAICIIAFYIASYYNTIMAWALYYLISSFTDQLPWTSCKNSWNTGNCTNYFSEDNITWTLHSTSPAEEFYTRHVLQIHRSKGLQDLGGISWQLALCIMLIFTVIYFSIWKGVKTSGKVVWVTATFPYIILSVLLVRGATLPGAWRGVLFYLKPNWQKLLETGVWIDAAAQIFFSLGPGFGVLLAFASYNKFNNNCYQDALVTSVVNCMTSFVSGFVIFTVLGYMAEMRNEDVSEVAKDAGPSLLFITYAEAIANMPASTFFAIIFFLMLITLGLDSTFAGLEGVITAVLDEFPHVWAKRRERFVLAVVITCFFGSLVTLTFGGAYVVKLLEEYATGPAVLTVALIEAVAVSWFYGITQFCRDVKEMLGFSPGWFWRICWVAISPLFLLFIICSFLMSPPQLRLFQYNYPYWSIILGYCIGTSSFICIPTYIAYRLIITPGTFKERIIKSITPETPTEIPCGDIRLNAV
hNET, sequence (P23975 whole entry): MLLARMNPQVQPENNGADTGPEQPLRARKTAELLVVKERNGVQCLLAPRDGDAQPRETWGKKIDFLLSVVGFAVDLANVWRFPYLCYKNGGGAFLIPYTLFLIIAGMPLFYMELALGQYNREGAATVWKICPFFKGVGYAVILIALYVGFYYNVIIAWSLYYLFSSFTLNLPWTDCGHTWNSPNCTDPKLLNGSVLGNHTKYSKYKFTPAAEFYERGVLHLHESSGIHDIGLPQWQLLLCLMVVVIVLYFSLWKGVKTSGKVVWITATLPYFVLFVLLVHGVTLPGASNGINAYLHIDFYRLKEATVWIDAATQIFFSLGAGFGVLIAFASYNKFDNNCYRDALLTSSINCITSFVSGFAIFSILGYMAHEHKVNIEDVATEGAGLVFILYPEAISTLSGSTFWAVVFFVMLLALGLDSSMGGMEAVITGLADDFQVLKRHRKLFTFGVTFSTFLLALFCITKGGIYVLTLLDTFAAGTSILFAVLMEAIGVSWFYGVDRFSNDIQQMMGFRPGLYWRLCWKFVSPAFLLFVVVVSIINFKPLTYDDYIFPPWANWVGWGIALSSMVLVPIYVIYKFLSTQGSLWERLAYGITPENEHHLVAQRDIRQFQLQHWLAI

`CCCC(C(=O)c1ccc(C)cc1)N1CCCC1` (stereo not drawn) [Pyrovalerone, pyrovalerone]: the Ki on hSERT [1] (ref Simmler et al. (2013)) was 5 ± 0.3 µM; on hDAT (ref Simmler et al. (2013)), 0.03 ± 0.01 µM; at Mouse TAAR1 (ref Simmler et al. (2013)), above 10 µM; at h5-HT2C receptor it was above 15 µM. In addition, on h5-HT2A receptor, the half-maximal effective concentration (EC50) is above 20 µM.

With `CCC(C(=O)c1ccc2c(c1)OCO2)N1CCCC1` (stereo not drawn) [MDPBP, 3,4-methylenedioxy-α-pyrrolidinobutiophenone], the Ki at hSERT [1] (ref Rickli et al. (2015)) was 4.1 ± 1.2 µM; at hDAT (ref Rickli et al. (2015)) it was 0.02 ± 0.002 µM; at Mouse TAAR1 (ref Rickli et al. (2015)) it was above 20 µM; at h5-HT2C receptor it was above 15 µM. The EC50 on h5-HT2A receptor was above 20 µM.

With `CCCC(C(=O)c1ccc2c(c1)OCO2)N1CCCC1` (stereo not drawn) [MDPV, 3,4-methylenedioxypyrovalerone], the Ki is 2.9 ± 0.1 µM at hSERT [1] (ref Simmler et al. (2013)), 0.01 ± 0.002 µM at hDAT (ref Simmler et al. (2013)), above 10 µM on Mouse TAAR1 (ref Simmler et al. (2013)) and above 15 µM at h5-HT2C receptor. In addition, the EC50 on h5-HT2A receptor is above 20 µM.

As to `CCCC(C(=O)c1ccccc1)N1CCCC1` (stereo not drawn) [α-PVP, α-pyrrolidinopentiophenone], the “Transporter-mediated monoamine efflux (5-HT) vs citalopram” value at hSERT [2] is on record as “did not induce any monoamine efflux”. Also, the Ki was above 30 µM at hSERT [1] (ref Rickli et al. (2015)), 0.007 ± 0.002 µM at hDAT (ref Rickli et al. (2015)), above 20 µM at Mouse TAAR1 (ref Rickli et al. (2015)) and above 15 µM at h5-HT2C receptor. Also, at hNET, the “Transporter-mediated monoamine efflux (NE) vs nisoxetine” value is “did not induce any monoamine efflux”. Moreover, at h5-HT2A receptor, the EC50 was above 20 µM.

Take `CCCCC(NCC)C(=O)c1ccccc1` (stereo not drawn) [NEH, N-ethylamine-hexanophenone]: the “Transporter-mediated monoamine efflux (5-HT) vs citalopram” value at hSERT [2] was “did not produce any monoamine efflux; also recorded: did not induce any monoamine efflux”. Moreover, the “Transporter-mediated monoamine efflux (NE) vs nisoxetine” value at hNET is on record as “did not produce any monoamine efflux; also recorded: did not induce any monoamine efflux”. The Ki at h5-HT2C receptor was above 15 µM. Besides, the concentration giving a half-maximal response (EC50) at h5-HT2A receptor was above 20 µM.

Regarding `CCC(C(=O)c1ccc(F)cc1)N1CCCC1` (stereo not drawn) [4F-PBP, 4-fluoro-α-pyrrolidinobutiophenone], the “Transporter-mediated monoamine efflux (5-HT) vs citalopram” value at hSERT [2] is recorded as “did not induce any monoamine efflux”. The “Transporter-mediated monoamine efflux (NE) vs nisoxetine” value on hNET was “did not induce any monoamine efflux”. Moreover, the Ki at h5-HT2C receptor was above 15 µM. In addition, the EC50 on h5-HT2A receptor was above 20 µM.

For the compound `CCCCC(C(=O)c1ccccc1)N1CCCC1` (stereo not drawn) [α-PHP, α-pyrrolidinohexanophenone], the “Transporter-mediated monoamine efflux (5-HT) vs citalopram” value on hSERT [2] is “did not induce any monoamine efflux”. For the same compound, the “Transporter-mediated monoamine efflux (NE) vs nisoxetine” value at hNET is recorded as “did not induce any monoamine efflux”. Moreover, the Ki on h5-HT2C receptor was above 15 µM. In addition, the concentration giving a half-maximal response (EC50) on h5-HT2A receptor is above 20 µM.

Regarding `CCCCC(C(=O)c1ccc2c(c1)OCO2)N1CCCC1` (stereo not drawn) [MDPHP, 3,4-methylenedioxy-α-pyrrolidinohexanophenone], at h5-HT2C receptor, the inhibition constant (Ki) is above 15 µM. Also, the EC50 on h5-HT2A receptor is above 20 µM.

With `CNC(C)Cc1ccc2c(c1)OCO2` (stereo not drawn) [MDMA, 3,4-methylenedioxymethamphetamine, reference compound], the “Transporter-mediated monoamine efflux (5-HT) vs citalopram” value on hSERT [2] is “causes significant release at the transporters”. Also, the Ki on hSERT [1] (setting [3]) is above 7.5 µM; on hDAT (setting [3]), above 8.5 µM; at Mouse TAAR1 (setting [3]), 3.1 ± 0.7 µM. Moreover, the “Transporter-mediated monoamine efflux (NE) vs nisoxetine” value on hNET was “causes significant release at the transporters”.

On h5-HT2C receptor, `COc1ccc(C(=O)C(C)N2CCCC2)cc1` (stereo not drawn) [MOPPP, 4-methoxy-α-pyrrolidinopropiophenone] had a Ki above 15 µM. The EC50 on h5-HT2A receptor was above 20 µM.

`CCCCC(C(=O)c1ccc(C)cc1)N1CCCC1` (stereo not drawn) [MPHP, 4-methyl-α-pyrrolidinohexanophenone]: the “Transporter-mediated monoamine efflux (5-HT) vs citalopram” value on hSERT [2] is given as “no monoamine efflux was observed”. For the same compound, the “Transporter-mediated monoamine efflux (NE) vs nisoxetine” value at hNET is given as “no monoamine efflux was observed”. Also, the Ki on h5-HT2C receptor is above 15 µM. For the same compound, the EC50 on h5-HT2A receptor is above 20 µM.

On to `CC(C(=O)c1ccccc1)N1CCCC1` (stereo not drawn) [α-PPP, α-pyrrolidinopropiophenone], for which the “Transporter-mediated monoamine efflux (5-HT) vs citalopram” value at hSERT [2] is reported as “did not induce any monoamine efflux”. For the same compound, the “Transporter-mediated monoamine efflux (NE) vs nisoxetine” value on hNET is on record as “did not induce any monoamine efflux”. On h5-HT2C receptor, the Ki was above 15 µM. Besides, the EC50 at h5-HT2A receptor was above 20 µM.

In the case of `Cc1ccc(C(=O)C(C)N2CCCC2)cc1` (stereo not drawn) [4-MePPP, 4-methyl-α-pyrrolidinopropiophenone], at hSERT [2], the “Transporter-mediated monoamine efflux (5-HT) vs citalopram” value is reported as “no monoamine efflux was observed”. Moreover, the “Transporter-mediated monoamine efflux (NE) vs nisoxetine” value on hNET is given as “no monoamine efflux was observed”. Moreover, the inhibition constant Ki at h5-HT2C receptor is above 5.1 µM. The EC50 on h5-HT2A receptor was above 10 µM.

As for `CC(C(=O)c1ccc2c(c1)OCO2)N1CCCC1` (stereo not drawn) [MDPPP, 3,4-methylenedioxy-α-pyrrolidinopropiophenone], the Ki at hSERT [1] (ref Rickli et al. (2015)) was 12 ± 1 µM; on hDAT (ref Rickli et al. (2015)), 0.18 ± 0.05 µM; on Mouse TAAR1 (ref Rickli et al. (2015)), above 20 µM; on h5-HT2C receptor, above 15 µM. The EC50 at h5-HT2A receptor was above 20 µM.
